Here are results for 11 molecules from ChEMBL document CHEMBL3217752, “Small molecules targeting phosphoinositide 3-kinases” (Medchemcomm, 2012).

pIC50: −log10 of the molar value.

In data set [1] the target is T1, Phosphatidylinositol 4,5-bisphosphate 3-kinase catalytic subunit alpha isoform (Homo sapiens, UniProt P42336). Type of data set: cell-based.
In data set [2] the target is T2, Phosphatidylinositol 4,5-bisphosphate 3-kinase catalytic subunit beta isoform (Homo sapiens, UniProt P42338). The format is cell-based.
T2 sequence (P42338 whole entry, canonical isoform): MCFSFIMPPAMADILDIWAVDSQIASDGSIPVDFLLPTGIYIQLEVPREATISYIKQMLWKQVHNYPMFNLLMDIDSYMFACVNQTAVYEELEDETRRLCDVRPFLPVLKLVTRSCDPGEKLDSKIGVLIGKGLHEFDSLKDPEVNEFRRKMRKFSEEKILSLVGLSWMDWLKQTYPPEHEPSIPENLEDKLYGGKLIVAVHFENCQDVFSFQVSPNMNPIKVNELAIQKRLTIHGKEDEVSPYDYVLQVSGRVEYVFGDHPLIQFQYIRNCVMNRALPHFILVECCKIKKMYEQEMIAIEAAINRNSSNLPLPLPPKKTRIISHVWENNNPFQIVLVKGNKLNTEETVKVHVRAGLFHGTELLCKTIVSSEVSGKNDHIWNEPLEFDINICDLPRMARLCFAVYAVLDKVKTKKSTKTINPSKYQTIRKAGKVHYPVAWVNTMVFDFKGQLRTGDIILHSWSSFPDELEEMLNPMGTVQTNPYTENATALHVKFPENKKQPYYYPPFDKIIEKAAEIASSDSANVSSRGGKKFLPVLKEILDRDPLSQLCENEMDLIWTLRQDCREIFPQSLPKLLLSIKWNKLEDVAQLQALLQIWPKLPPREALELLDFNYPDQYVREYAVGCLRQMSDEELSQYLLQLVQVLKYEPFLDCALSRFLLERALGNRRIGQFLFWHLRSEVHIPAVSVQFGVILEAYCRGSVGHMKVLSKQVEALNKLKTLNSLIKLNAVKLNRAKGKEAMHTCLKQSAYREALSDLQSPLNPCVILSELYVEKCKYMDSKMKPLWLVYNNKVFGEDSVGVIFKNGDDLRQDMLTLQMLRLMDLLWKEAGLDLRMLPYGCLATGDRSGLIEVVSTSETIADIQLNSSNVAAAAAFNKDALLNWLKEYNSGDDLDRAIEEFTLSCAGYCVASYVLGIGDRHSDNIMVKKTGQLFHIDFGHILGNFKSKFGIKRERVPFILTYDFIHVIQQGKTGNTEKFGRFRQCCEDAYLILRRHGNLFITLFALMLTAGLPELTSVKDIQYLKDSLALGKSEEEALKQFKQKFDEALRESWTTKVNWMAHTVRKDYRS
Data set [3] addresses T3, Phosphatidylinositol 4,5-bisphosphate 3-kinase catalytic subunit gamma isoform (Homo sapiens, UniProt P48736).
The target in data set [4] is T2, Phosphatidylinositol 4,5-bisphosphate 3-kinase catalytic subunit beta isoform.
In data set [5] the target is T1, Phosphatidylinositol 4,5-bisphosphate 3-kinase catalytic subunit alpha isoform.
Data set [6] addresses T3, Phosphatidylinositol 4,5-bisphosphate 3-kinase catalytic subunit gamma isoform. The source holds these as a separate data set.
For data set [7], the target named is T4, Phosphatidylinositol 4,5-bisphosphate 3-kinase catalytic subunit delta isoform (Homo sapiens, UniProt O00329).
T4 sequence (O00329 whole entry): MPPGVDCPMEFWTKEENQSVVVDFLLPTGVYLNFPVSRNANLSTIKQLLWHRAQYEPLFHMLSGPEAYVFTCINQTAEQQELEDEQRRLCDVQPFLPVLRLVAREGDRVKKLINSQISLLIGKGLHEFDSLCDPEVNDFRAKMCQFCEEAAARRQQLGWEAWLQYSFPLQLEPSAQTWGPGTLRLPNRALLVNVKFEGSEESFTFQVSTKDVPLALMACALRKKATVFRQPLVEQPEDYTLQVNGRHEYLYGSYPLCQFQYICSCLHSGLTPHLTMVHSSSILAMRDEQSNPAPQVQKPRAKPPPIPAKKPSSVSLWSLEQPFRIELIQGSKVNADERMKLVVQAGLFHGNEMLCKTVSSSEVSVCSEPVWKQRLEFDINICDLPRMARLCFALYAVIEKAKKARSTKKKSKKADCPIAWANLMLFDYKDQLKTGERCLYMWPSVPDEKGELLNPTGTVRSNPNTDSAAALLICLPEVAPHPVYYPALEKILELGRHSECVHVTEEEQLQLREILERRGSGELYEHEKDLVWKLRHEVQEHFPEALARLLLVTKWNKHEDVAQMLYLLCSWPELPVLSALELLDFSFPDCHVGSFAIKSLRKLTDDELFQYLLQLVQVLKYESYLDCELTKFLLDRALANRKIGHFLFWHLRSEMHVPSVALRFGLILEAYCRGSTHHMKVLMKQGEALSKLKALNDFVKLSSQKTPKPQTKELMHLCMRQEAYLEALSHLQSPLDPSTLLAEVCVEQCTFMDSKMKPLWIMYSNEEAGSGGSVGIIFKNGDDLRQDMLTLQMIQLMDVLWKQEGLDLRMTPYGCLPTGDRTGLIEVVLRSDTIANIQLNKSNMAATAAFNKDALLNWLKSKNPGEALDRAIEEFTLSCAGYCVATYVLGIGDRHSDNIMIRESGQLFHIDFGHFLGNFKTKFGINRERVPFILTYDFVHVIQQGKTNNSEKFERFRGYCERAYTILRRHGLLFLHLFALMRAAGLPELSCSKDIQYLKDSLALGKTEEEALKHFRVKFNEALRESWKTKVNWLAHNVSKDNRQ

Data set [8] addresses Serine/threonine-protein kinase mTOR (Homo sapiens, UniProt P42345).
The target in data set [9] is DNA-dependent protein kinase catalytic subunit (Homo sapiens, UniProt P78527).
A further data set is described as follows: clinical. The following applies: human, in vivo.
A further data set has as its target mTORC1 (Homo sapiens, UniProt P42345). The format is protein-complex assay.
A short description of another data set: cells. The format is cell-based. As to conditions: Homo sapiens.

T3 sequence (P48736 whole entry, canonical isoform): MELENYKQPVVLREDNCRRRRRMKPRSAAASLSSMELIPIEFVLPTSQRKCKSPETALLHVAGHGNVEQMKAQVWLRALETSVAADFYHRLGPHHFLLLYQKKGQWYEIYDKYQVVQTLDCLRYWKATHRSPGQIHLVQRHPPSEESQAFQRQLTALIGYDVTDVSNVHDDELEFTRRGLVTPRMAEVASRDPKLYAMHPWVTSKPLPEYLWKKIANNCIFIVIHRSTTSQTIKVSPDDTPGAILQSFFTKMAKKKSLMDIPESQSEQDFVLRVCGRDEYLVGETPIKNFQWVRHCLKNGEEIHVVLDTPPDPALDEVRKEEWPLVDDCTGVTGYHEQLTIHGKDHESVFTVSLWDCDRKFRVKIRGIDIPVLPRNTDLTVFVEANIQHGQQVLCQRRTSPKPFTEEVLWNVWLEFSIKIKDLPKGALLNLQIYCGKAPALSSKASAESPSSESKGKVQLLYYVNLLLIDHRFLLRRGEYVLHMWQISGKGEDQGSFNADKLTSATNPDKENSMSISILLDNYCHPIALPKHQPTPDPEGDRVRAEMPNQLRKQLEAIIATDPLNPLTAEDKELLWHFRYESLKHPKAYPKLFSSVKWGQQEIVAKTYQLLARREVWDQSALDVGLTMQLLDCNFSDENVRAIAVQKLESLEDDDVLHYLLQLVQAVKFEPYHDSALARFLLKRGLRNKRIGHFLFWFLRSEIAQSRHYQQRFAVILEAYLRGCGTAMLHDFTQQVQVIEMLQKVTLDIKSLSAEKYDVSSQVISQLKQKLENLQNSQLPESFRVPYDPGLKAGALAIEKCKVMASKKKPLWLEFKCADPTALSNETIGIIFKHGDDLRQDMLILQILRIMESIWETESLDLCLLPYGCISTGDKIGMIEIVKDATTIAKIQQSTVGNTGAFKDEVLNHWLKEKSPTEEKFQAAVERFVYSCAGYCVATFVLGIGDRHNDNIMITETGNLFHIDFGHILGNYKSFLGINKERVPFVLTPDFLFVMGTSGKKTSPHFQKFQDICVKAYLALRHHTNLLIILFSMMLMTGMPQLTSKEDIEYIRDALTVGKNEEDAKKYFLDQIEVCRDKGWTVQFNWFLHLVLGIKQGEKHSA
T1 sequence (P42336 whole entry, canonical isoform): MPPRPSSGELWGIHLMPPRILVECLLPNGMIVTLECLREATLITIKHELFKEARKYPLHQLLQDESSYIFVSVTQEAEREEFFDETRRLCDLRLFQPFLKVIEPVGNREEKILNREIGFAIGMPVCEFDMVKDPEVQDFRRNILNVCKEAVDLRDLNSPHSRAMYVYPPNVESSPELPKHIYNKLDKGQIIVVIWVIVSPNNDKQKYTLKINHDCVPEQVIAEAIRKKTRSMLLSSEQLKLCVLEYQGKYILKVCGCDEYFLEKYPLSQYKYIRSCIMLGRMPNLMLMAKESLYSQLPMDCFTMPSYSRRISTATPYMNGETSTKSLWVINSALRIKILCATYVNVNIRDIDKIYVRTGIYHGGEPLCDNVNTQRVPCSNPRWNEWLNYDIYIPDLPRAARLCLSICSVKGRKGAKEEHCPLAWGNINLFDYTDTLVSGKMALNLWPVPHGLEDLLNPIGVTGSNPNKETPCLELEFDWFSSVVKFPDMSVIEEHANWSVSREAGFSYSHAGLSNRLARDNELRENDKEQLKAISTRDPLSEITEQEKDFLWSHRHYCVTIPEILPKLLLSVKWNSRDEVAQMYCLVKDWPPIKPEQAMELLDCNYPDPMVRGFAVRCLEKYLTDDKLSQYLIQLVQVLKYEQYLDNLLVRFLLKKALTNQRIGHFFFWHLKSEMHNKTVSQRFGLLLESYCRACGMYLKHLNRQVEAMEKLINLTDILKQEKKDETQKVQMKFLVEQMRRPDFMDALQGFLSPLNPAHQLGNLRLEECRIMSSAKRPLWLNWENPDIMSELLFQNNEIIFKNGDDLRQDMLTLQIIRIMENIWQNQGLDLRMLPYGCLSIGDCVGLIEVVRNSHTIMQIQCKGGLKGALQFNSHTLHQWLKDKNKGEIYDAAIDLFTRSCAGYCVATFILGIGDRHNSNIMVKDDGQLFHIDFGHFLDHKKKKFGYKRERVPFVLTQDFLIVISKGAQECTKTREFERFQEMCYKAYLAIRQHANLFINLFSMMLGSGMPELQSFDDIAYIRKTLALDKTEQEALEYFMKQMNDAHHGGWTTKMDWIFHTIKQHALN

By pIC50 is commonly meant the negative decadic logarithm of the IC50, by convention in mol/L. High values mean a small IC50, low ones a large IC50. For the molecule `Oc1ccc(/C=C/c2cc(O)cc(O)c2)cc1` [RESVERATROL], the negative-log IC50 (pIC50) in [1] was 6.60; in data set [2] it was 6.30.
In the case of `CN1CCOc2cc(/C=C3\SC(=O)NC3=O)ccc21`, the negative logarithm of the IC50 (pIC50) in data set [3] was below 5.00.
For `N=C(N)NCCCC(NC(=O)CCC(=O)OC[N+]1(c2cc(=O)c3cccc(-c4ccccc4)c3o2)CCOCC1)C(=O)NCC(=O)NC(CC(=O)O)C(=O)NC(CO)C(=O)[O-]` (stereo not drawn), the pIC50 in data set [4] was 6.13; in data set [5], 6.45; in data set [6], 5.75; in data set [7] it was 5.49; in [8], 5.97; in [9] it was 6.45.
Turning to `CC[C@H](Nc1ncnc2[nH]cnc12)c1nc2cccc(F)c2c(=O)n1-c1ccccc1` [IDELALISIB], the pIC50 in data set [8] was below 5.00.
`Cc1cc(Oc2ccccc2C)c2[nH]c(N3CCOCC3)cc(=O)c2c1` showed a negative-log IC50 (pIC50) in data set [4] of 6.89.
The same measure, in the same setting: under `Cc1ccc(S(=O)(=O)Nc2nc3ccccc3nc2Nc2ccc3nsnc3c2)cc1` stands 6.42.
Take `Cc1cc(NCc2ccccc2C)c2nc(N3CCOCC3)cc(=O)n2c1`: the negative logarithm of the IC50 (pIC50) in data set [4] was 6.96.
The half-life is the time in which the quantity being followed falls by half. Read a low half-life as rapid decline. In the case of `COc1ccc(-c2ccc3ncc4c(c3c2)n(-c2ccc(N3CCNCC3)c(C(F)(F)F)c2)c(=O)n4C)cn1` [BGT-226 FREE BASE], in the data set “clinical”, the half-life is 6 h.
With `COc1cc(Nc2nc3ccccc3nc2NS(=O)(=O)c2ccc(NC(=O)c3ccc(C)c(OC)c3)cc2)cc(OC)c1`, the pIC50 in [9] is 6.82; against mTORC1, 6.72.
The molecule `COc1c(OCCCN2CCOCC2)ccc2c1N=C(NC(=O)c1cnc(N)nc1)N1CCN=C21` [COPANLISIB] had a pIC50 in “cells” above 9.00.
In data set [4], `O=Cc1ccc(N2CCOCC2)cc1O` gave a negative logarithm of the IC50 (pIC50) of 5.55.
